Measured values as given in paper PMC3581553, “New Approaches of PARP-1 Inhibitors in Human Lung Cancer Cells and Cancer Stem-Like Cells by Some Selected Anthraquinone-Derived Small Molecules” (PLoS ONE, 2013).
Where two headings read alike, the source gives them in different places.

What was measured:
[1] = test system: Oct-4- and Nanog-overexpressed A549 clone (A3); assay: MTT cytotoxicity assay, A3 cells; type: cell-based; settings: Homo sapiens, 48 h of drug exposure
Method: (§1) Non-small cell lung cancer cells A549 and Oct-4- and Nanog-overexpressed A549 clone (clone #3; A3), presented the properties of cancer stem-like cells, as well as epithelial-mesenchymal transdifferentiation, according to our previous study. They were grown in the same conditions as RPMI 1640 media supplemented with 10% fetal bovine serum (FBS), 100 units/mL penicillin, […] streptomycin, 1 mM sodium pyruvate, 2 mM l-glutamine and 1% non-essential amino acid (NEAA) in a humidified atmosphere with 5% CO2 at 37°C. Normal fibroblast cells HEL299 from American Type Culture Collection (ATCC) were grown in MEM media supplemented with 10% FBS, 100 units/mL penicillin, […] streptomycin, 1 mM sodium pyruvate, 2 mM l-glutamine and 1% NEAA, in a humidified atmosphere with 5% CO2 at 37°C.
(§2) The tetrazolium reagent (MTT; 3-(4,5-dimethylthiazol-2-yl)-2,5-diphenyl-tetrazolium bromide, USB) was designed to yield a colored formazan upon metabolic reduction by viable cells, [61]. Approximately 5×10^4 cells were plated onto each well of a 24-well plate and incubated in 5% CO2 at 37°C for 24 hours. To assess the in vitro cytotoxicity, each compound was dissolved in DMSO and prepared immediately before the experiments and then was diluted into the complete medium before being added to cell cultures. Test compounds were then added to the culture medium in various designated concentrations. After 48 hours, an amount of 100 µl of MTT was added to each well, and the samples were incubated at 37°C for 2 h. 100 µl DMSO was added to each well. The absorbency at 560 nm and reference absorbency at 670 nm were measured using an ELISA reader.

NCI-H322M = assay: NCI-60 drug screen (SRB), NSCLC line NCI-H322M; type: cell-based, human; settings: for LC50 / GI50: Homo sapiens
Method: (§3) As a primary screening, seven selected compounds were submitted to the National Cancer Institute (NCI) cell lines screen for evaluation of their anticancer activity. From the data analysis, it follows that approximately 95% of the actives from the 60 cell lines screen can be identified. The detailed methods used for the 60 cell lines panel have been described elsewhere [54]–[59]. Briefly, cellular protein levels were determined after 48 hours of drug exposure by SRB colorimetry. Through the use of a time zero cell control, the cell growth can be determined for each cell line thus allowing calculations of GI50, TGI, and LC50. Comparison to plates not exposed to drug permits determination of concentration and times of exposure conferring GI50, TGI, and LC50. […] By these criteria, seven compounds reported from our compounds bank were all active and passed on for evaluation in the full panel of 60 human tumor cell lines. The panel is organized into nine subpanels representing diverse histology: leukemia, melanoma, and cancers of the lung, colon, kidney, ovary, breast, prostate, and central nervous system.

NCI-H23 = assay: NCI-60 drug screen (SRB), NSCLC line NCI-H23; type: cell-based, human; settings: for GI50 / CC50: Homo sapiens; for CC50: read-out: LC50 (the source's name)
Method: as §3

EKVX = assay: NCI-60 drug screen (SRB), NSCLC line EKVX; type: cell-based, human; settings: for LC50 / GI50: Homo sapiens
Method: as §3

A549 cells = assay: MTT cytotoxicity assay, A549 cells; type: cell-based; settings: Homo sapiens, 48 h of drug exposure
Method: as §1, §2

A549/ATCC = assay: NCI-60 drug screen (SRB), NSCLC line A549/ATCC; type: cell-based, human; settings: for LC50 (concentration killing 50% of cells) / GI50: Homo sapiens
Method: as §3

HOP-92 = assay: NCI-60 drug screen (SRB), NSCLC line HOP-92; type: cell-based, human; settings: for GI50 / CC50: Homo sapiens; for CC50: read-out: LC50 (the source's name)
Method: as §3

NCI-H522 = assay: NCI-60 drug screen (SRB), NSCLC line NCI-H522; type: cell-based, human; settings: for GI50 / CC50: Homo sapiens; for CC50: read-out: LC50 (the source's name)
Method: as §3

[2] = 48 hours drug exposure, SRB, read-out: GI50
[3] = NCI in vitro 60-cell lines Drug Screen, read-out: -Log GI50 (converted)

Structure (SMILES) | IC50 [1] | LC50 (NCI-H322M; 48 hours drug exposure, SRB) | GI50 (NCI-H322M; [2]) | GI50 (NCI-H322M; [3]) | TGI (NCI-H23; 48 hours drug exposure, SRB) | GI50 (NCI-H23; [2]) | CC50 (NCI-H23; 48 hours drug exposure, SRB) | GI50 (NCI-H23; [3]) | TGI (EKVX; 48 hours drug exposure, SRB) | LC50 (EKVX; 48 hours drug exposure, SRB) | GI50 (EKVX; [2]) | GI50 (EKVX; [3]) | IC50 (A549 cells) | TGI (A549/ATCC; 48 hours drug exposure, SRB) | LC50 (concentration killing 50% of cells) (A549/ATCC; 48 hours drug exposure, SRB) | GI50 (A549/ATCC; [2]) | GI50 (A549/ATCC; [3]) | TGI (HOP-92; 48 hours drug exposure, SRB) | GI50 (HOP-92; [2]) | CC50 (HOP-92; 48 hours drug exposure, SRB) | further results
CN(C)CC(=O)Nc1ccc2c(c1)C(=O)c1cc(NC(=O)CN(C)C)ccc1C2=O [NSC746364] | 5.9 µM | 83.1 µM | 1.86 µM | 1.86 µM | 28.1 µM | 11 µM | 71.8 µM | 11 µM | 31.4 µM | 77.4 µM | 12.8 µM | 12.9 µM | 4.49 µM | 4.43 µM | > 100 µM | 1.45 µM | 1.45 µM | 31.7 µM | 10.4 µM | 96.6 µM | TGI (NCI-H322M; 48 hours drug exposure, SRB): 4.91 µM; GI50 (HOP-92; [3]): 10.5 µM; TGI (NCI-H522; 48 hours drug exposure, SRB): 13.1 µM; GI50 (NCI-H522; [2]): 1.27 µM; CC50 (NCI-H522; 48 hours drug exposure, SRB): 66.4 µM; GI50 (NCI-H522; [3]): 1.26 µM
CCN(CC)CCC(=O)Nc1ccc2c(c1)C(=O)c1cc(NC(=O)CCN(CC)CC)ccc1C2=O [NSC746365] | 5.21 µM | 4.71 µM | 2.85 µM | 2.82 µM | 3.55 µM | 1.53 µM | 8.27 µM | 1.51 µM | 11.0 µM | 34.6 µM | 3.05 µM | 3.02 µM | 7.66 µM | 3.95 µM | 15.5 µM | 1.44 µM | 1.45 µM | 0.06 µM | 0.01 µM | 3.48 µM | GI50 (HOP-92; [3]): 0.0148 µM; TGI (NCI-H522; 48 hours drug exposure, SRB): 4.59 µM; GI50 (NCI-H522; [2]): 1.4 µM; CC50 (NCI-H522; 48 hours drug exposure, SRB): 19.3 µM; GI50 (NCI-H522; [3]): 1.38 µM
O=C(CCN1CCCC1)Nc1ccc2c(c1)C(=O)c1cc(NC(=O)CCN3CCCC3)ccc1C2=O [NSC746366] | 5.77 µM | 42 µM | 1.81 µM | 1.82 µM | 17.3 µM | 2.38 µM | > 100 µM | 2.4 µM | 20.4 µM | > 100 µM | 3.57 µM | 3.55 µM | 7.76 µM | 12.7 µM | 74.7 µM | 2.2 µM | 2.19 µM | 0.82 µM | 0.45 µM | 34.6 µM | TGI (NCI-H322M; 48 hours drug exposure, SRB): 10.9 µM; GI50 (HOP-92; [3]): 0.447 µM; TGI (NCI-H522; 48 hours drug exposure, SRB): 17.1 µM; GI50 (NCI-H522; [2]): 3.41 µM; CC50 (NCI-H522; 48 hours drug exposure, SRB): > 100 µM; GI50 (NCI-H522; [3]): 3.39 µM
